According to US20260232666A1, “COMPOSITIONS AND METHODS FOR INHIBITION OF RAS” (TheRas, Inc., priority 2023, published 2026):

Tests used:
[1] = molecular target: T1, GDP-loaded KRAS4b (amino acids 1-169) G12C/C118S protein (Homo sapiens, UniProt P01116, C118S/G12C); experiment: Covalent cysteine 12 modification by MALDI-TOF MS, GDP-loaded KRAS G12C; assay type: binding; details: 15 minutes reaction time point
T1 construct: KRAS4b (amino acids 1-169) G12C/C118S protein; made in house
In short: (§1)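 Covalent adduct formation measured by linear-mode MALDI-TOF MS as modified peak height over summed peak heights, 15 min time point reported. Reactions: KRAS4b 1-169 G12C/C118S (1 μM, loaded with GppNHp, GTP or GDP) plus compound at 1:2.5 ratio, pH 7.3 HEPES/NaCl/MgCl2, room temperature.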

[2] = molecular target: T2, GppNHp-loaded KRAS4b (amino acids 1-169) G12C/C118S protein (Homo sapiens, UniProt P01116, C118S/G12C); experiment: Covalent cysteine 12 modification by MALDI-TOF MS, GppNHp-loaded KRAS G12C; assay type: binding; details: 15 minutes reaction time point
T2 construct: KRAS4b (amino acids 1-169) G12C/C118S protein; made in house
In short: as §1

pERK in NCI-H358 cells = experiment: Cell-based pERK HTRF assay (pERK inhibition in H358 cells); details: 30 min incubation
In short: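 NCI-H358 cells were seeded at 4×10^4 cells/well in RPMI/10% FBS, then treated next day for 30 min at 0.25% DMSO (9-point, 3-fold series from 75 μM). Lysates were read by HTRF (d2/Eu cryptate antibody pair, 615 nm emission) after 4–24 h at room temperature to give pERK IC50.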

SMILES	GDP-KRAS G12C percent of modification [1]	GppNHp-KRAS G12C percent of modification [2]	IC50 (pERK in NCI-H358 cells; Homo sapiens, NCI-H358, 0.5 h)	IC50 (pERK in NCI-H358 cells)
C=CC(=O)N1CCC(N(C)c2nc(OC[C@@]34CCCN3C[C@H](F)C4)nc3c(F)c(-c4ccc(F)c5sc(N)c(C#N)c45)c(Cl)cc23)[C@H]1CC (stereo partly drawn) [Compound 2]	B (50≤percent of modification <70%)	D (percent of modification <10%)	< 100 nM	–
C=CC(=O)N1CC[C@@H](N(CC)c2nc(OC[C@@]34CCCN3C[C@H](F)C4)nc3c(F)c(-c4ccc(F)c5sc(N)c(C#N)c45)ccc23)[C@@H]1CC [Compound 50]	A (percent of modification ≥70%)	D (percent of modification <10%)	100 to 1000 nM	–
C=CC(=O)N1CC[C@@H](N(C)c2nc(OC[C@@H]3CC4(CC4)CN3CC)nc3c(F)c(-c4ccc(F)c5sc(N)c(C#N)c45)c(C(F)(F)F)cc23)[C@@H]1C [Compound 95]	A (percent of modification ≥70%)	A (percent of modification ≥70%)	< 100 nM	–
C=CC(=O)N1CC[C@@H](N(CC)c2nc(OC[C@@H]3C[C@@H](OC)CN3C)nc3c(F)c(-c4ccc(F)c5sc(N)c(C#N)c45)c(Cl)cc23)[C@H]1C [Compound 73]	B (50≤percent of modification <70%)	B (50≤percent of modification <70%)	< 100 nM	–
C=CC(=O)N1CC[C@@H](N(C)c2nc(OC[C@@H]3CC4(CC4)CN3CC)nc3c(F)c(-c4ccc(F)c5sc(N)c(C#N)c45)c(Cl)cc23)[C@@H]1C [Compound 92]	A (percent of modification ≥70%)	A (percent of modification ≥70%)	< 100 nM	–
C=CC(=O)N1CC[C@@H](N(C)c2nc(OC[C@@H]3C[C@@H](OC)CN3C)nc3c(F)c(-c4ccc(F)c5sc(N)c(C#N)c45)c(Cl)cc23)[C@H]1C [Compound 63, 4-(4-(((2R,3R)-1-acryloyl-2-methylpyrrolidin-3-yl)(methyl)amino)-6-chloro-8-fluoro-2-(((2S,4R)-4-methoxy-1-methylpyrrolidin-2-yl)methoxy)quinazolin-7-yl)-2-amino-7-fluorobenzo[b]thiophene-3-carbonitrile]	A (percent of modification ≥70%)	B (50≤percent of modification <70%)	< 100 nM	–
C=CC(=O)N1CC2CCC(C1)N2c1nc(OC[C@@]23CCCN2C[C@H](F)C3)nc2c(F)c(-c3ccc(F)c4sc(N)c(C#N)c34)c(C(F)(F)F)cc12 [Compound 49]	A (percent of modification ≥70%)	C (10%≤percent of modification <50%)	< 100 nM	–
C=CC(=O)N1CC[C@@H](N(C)c2nc(N3CC(N(C)C)C3)nc3c(F)c(-c4ccc(F)c5sc(N)c(C#N)c45)c(C(F)(F)F)cc23)[C@H]1C [Compound 80]	B (50≤percent of modification <70%)	B (50≤percent of modification <70%)	100 to 1000 nM	–
C=CC(=O)N1CC[C@@H](N(CC)c2nc(OC[C@@H]3C[C@@H](OC)CN3C)nc3c(F)c(-c4ccc(F)c5sc(N)c(C#N)c45)c(C(F)(F)F)cc23)[C@H]1C [Compound 45, 4-(4-(((2R,3R)-1-acryloyl-2-methylpyrrolidin-3-yl)(ethyl)amino)-8-fluoro-2-(((2S,4R)-4-methoxy-1-methylpyrrolidin-2-yl)methoxy)-6-(trifluoromethyl)quinazolin-7-yl)-2-amino-7-fluorobenzo[b]thiophene-3-carbonitrile]	A (percent of modification ≥70%)	A (percent of modification ≥70%)	< 100 nM	–
C=CC(=O)N1CC[C@@H](N(CC)c2nc(OC[C@@]34CCCN3C[C@H](F)C4)nc3c(F)c(-c4ccc(F)c5sc(N)c(C#N)c45)ccc23)[C@@H]1C [Compound 57]	A (percent of modification ≥70%)	B (50≤percent of modification <70%)	< 100 nM	–
C=CC(=O)N1CC[C@@H](N(C)c2nc(OC[C@@H]3C[C@@H](F)CN3C)nc3c(F)c(-c4ccc(F)c5sc(N)c(C#N)c45)c(Cl)cc23)[C@@H]1C [Compound 82]	B (50≤percent of modification <70%)	A (percent of modification ≥70%)	< 100 nM	–
C=CC(=O)N1CC[C@@H](N(CC)c2nc(OC[C@@]34CCCN3C[C@H](F)C4)nc3c(F)c(-c4ccc(F)c5sc(N)c(C#N)c45)c(C(F)(F)F)cc23)[C@H]1CC [Compound 39]	C (10%≤percent of modification <50%)	C (10%≤percent of modification <50%)	< 100 nM	–
C=CC(=O)N1CC[C@@H](N(C)c2nc(OC[C@@H]3CC4(CC4)CN3CC)nc3c(F)c(-c4ccc(F)c5sc(N)c(C#N)c45)c(Cl)cc23)[C@H]1C [Compound 97]	A (percent of modification ≥70%)	A (percent of modification ≥70%)	< 100 nM	–
C=CC(=O)N1CC[C@@H](N(CC)c2nc(OC[C@@H]3C[C@@H](F)CN3C)nc3c(F)c(-c4ccc(F)c5sc(N)c(C#N)c45)c(C(F)(F)F)cc23)[C@H]1C [Compound 52]	C (10%≤percent of modification <50%)	B (50≤percent of modification <70%)	–	< 100 nM
C=CC(=O)N1CC[C@@H](N(C)c2nc(OCC3(CN4CCOCC4)CC3)nc3c(F)c(-c4ccc(F)c5sc(N)c(C#N)c45)c(C(F)(F)F)cc23)[C@H]1C [Compound 87]	C (10%≤percent of modification <50%)	C (10%≤percent of modification <50%)	< 100 nM	–
C=CC(=O)N1CC[C@@H](N(CC)c2nc(OC[C@@]34CCCN3C[C@H](F)C4)nc3c(F)c(-c4ccc(F)c5sc(N)c(C#N)c45)c(Cl)cc23)[C@@H]1C [Compound 77]	A (percent of modification ≥70%)	A (percent of modification ≥70%)	< 100 nM	–
C=CC(=O)N1CC[C@@H](N(C)c2nc(OC[C@@H]3C[C@@H](OC)CN3CC)nc3c(F)c(-c4ccc(F)c5sc(N)c(C#N)c45)c(Cl)cc23)[C@H]1C [Compound 99]	A (percent of modification ≥70%)	A (percent of modification ≥70%)	< 100 nM	–
C=CC(=O)N1C[C@H]2C[C@@H]1CN2c1nc(OC[C@@]23CCCN2C[C@H](F)C3)nc2c(F)c(-c3ccc(F)c4sc(N)c(C#N)c34)c(C(F)(F)F)cc12 [Compound 37]	C (10%≤percent of modification <50%)	D (percent of modification <10%)	100 to 1000 nM	–
C=CC(=O)N1CCC(N(C)c2nc(OC[C@@]34CCCN3C[C@H](F)C4)nc3c(F)c(-c4ccc(F)c5sc(N)c(C#N)c45)c(C(F)(F)F)cc23)[C@H]1CC (stereo partly drawn) [Compound 3]	C (10%≤percent of modification <50%)	C (10%≤percent of modification <50%)	< 100 nM	–
C=CC(=O)N1CC[C@@H](N(C)c2nc(OC[C@@H]3C[C@@H](F)CN3CC)nc3c(F)c(-c4ccc(F)c5sc(N)c(C#N)c45)c(Cl)cc23)[C@H]1C [Compound 98]	D (percent of modification <10%)	D (percent of modification <10%)	100 to 1000 nM	–
